# Laboratory results as given in US20250215030A1, “STAT MODULATORS AND USES THEREOF” (Recludix Pharma, Inc., priority 2022, published 2025).
# Target: T1, pSTAT3 (pY705-STAT3) (Homo sapiens, UniProt P40763)
# T1 construct: host or cells: cryopreserved PBMC
# Assay: MSD-pSTAT-PBMC Assay (pSTAT3, IL-6 stimulated)
# Type: cell-based
# Conditions: not given
# Summary of the method: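 Human PBMCs (50,000 cells/well for STAT3, 25,000 for STAT6) treated with compound 3 h, then stimulated 10 min with 10 ng/mL IL-6 or 1 ng/mL IL-4. Lysate pSTAT3 (pY705) or pSTAT6 (pY641) measured by MSD sandwich electrochemiluminescence. Signal minus unstimulated, normalized to DMSO; IC50 by variable-slope nonlinear regression.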
# T1 sequence (P40763 whole entry): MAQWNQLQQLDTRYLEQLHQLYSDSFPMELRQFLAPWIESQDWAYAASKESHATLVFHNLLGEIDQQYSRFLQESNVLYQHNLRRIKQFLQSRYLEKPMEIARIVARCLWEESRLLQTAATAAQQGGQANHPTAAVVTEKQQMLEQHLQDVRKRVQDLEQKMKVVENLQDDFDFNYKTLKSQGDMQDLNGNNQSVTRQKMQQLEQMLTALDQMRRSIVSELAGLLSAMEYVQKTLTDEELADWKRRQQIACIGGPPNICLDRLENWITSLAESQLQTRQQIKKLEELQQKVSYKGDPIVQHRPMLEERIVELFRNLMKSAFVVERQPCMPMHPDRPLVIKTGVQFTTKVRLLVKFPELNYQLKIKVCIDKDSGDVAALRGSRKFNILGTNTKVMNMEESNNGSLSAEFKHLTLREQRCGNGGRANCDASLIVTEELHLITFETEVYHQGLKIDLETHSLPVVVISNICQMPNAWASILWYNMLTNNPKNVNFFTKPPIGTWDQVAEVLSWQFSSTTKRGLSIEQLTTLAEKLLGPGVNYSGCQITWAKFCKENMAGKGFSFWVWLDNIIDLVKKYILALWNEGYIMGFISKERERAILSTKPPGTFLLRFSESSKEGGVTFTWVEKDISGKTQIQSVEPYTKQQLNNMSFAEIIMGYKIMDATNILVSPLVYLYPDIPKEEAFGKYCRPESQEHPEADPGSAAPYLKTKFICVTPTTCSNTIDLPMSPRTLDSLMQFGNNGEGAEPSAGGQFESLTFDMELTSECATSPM
row,Structure (SMILES),IC50
1,"CCCOC(=O)[C@@H](C)NP(=O)(Cc1ccc2sc(C(=O)N[C@H]3C[C@@H]4C[C@]4(C)C[C@H]4CC[C@@H](C(=O)N5CC(c6cccnc6)C5)N4C3=O)cc2c1)Oc1ccccc1 (stereo in doubt) [Compound 240, propyl(((2-(((3S,6S,7aR,8aS,9aR)-8a-methyl-5-oxo-3-(3-(pyridin-3-yl)azetidine-1-carbonyl)decahydro-1H-cyclopropa[d]pyrrolo[1,2-a]azocin-6-yl)carbamoyl)benzo[b]thiophen-5-yl)methyl)(phenoxy)phosphoryl)-L-alaninate]",< 100 nM
2,"CCCOC(=O)[C@H](C)N[P@@](=O)(Oc1ccccc1)[C@@H](F)c1ccc2sc(C(=O)N[C@H]3C[C@@H]4C[C@@H]4C[C@H]4CC[C@@H](C(=O)N5C[C@H](c6cccnc6)[C@@H](C#N)C56CC6)N4C3=O)cc2c1 (single isomer, unassigned) [Compound 431]",> 3000 nM
3,"CCCOC(=O)[C@H](C)N[P@@](=O)(Oc1ccccc1)[C@H](F)c1ccc2sc(C(=O)N[C@H]3C[C@@H]4C[C@@H]4C[C@H]4CC[C@@H](C(=O)N5CC(c6cnccc6N(C)C)C5)N4C3=O)cc2c1 (stereo in doubt) [Compound 415, propyl((R)-((R)-(2-(((3S,6S,7aS,8aR,9aR)-3-(3-(4-(dimethylamino)pyridin-3-yl)azetidine-1-carbonyl)-5-oxodecahydro-1H-cyclopropa[d]pyrrolo[1,2-a]azocin-6-yl)carbamoyl)benzo[b]thiophen-5-yl)fluoromethyl)(phenoxy)phosphoryl)-L-alaninate]",< 100 nM
4,"CCCOC(=O)[C@H](CC)NP(=O)(Oc1ccccc1)C(F)c1ccc2sc(C(=O)N[C@H]3C[C@@H]4C[C@@H]4C[C@H]4CC[C@@H](C(=O)N5CC(c6cnccc6C)C5)N4C3=O)cc2c1 (stereo partly drawn) [Compound 283, propyl(2S)-2-(((fluoro(2-(((3S,6S,7aS,8aR,9aR)-3-(3-(4-methylpyridin-3-yl)azetidine-1-carbonyl)-5-oxodecahydro-1H-cyclopropa[d]pyrrolo[1,2-a]azocin-6-yl)carbamoyl)benzo[b]thiophen-5-yl)methyl)(phenoxy)phosphoryl)amino)butanoate]",< 100 nM
5,"CCCOC(=O)[C@@H](C)NP(=O)(Oc1ccccc1)C(F)c1ccc2sc(C(=O)N[C@H]3C[C@@H]4C[C@@H]4C[C@H]4CC[C@@H](C(=O)N5C[C@@H]6[C@H]5CCN6C(C)=O)N4C3=O)cc2c1 (stereo in doubt) [Compound 291, propyl(((2-(((3S,6S,7aS,8aR,9aR)-3-((1S,5S)-2-acetyl-2,6-diazabicyclo[3.2.0]heptane-6-carbonyl)-5-oxodecahydro-1H-cyclopropa[d]pyrrolo[1,2-a]azocin-6-yl)carbamoyl)benzo[b]thiophen-5-yl)fluoromethyl)(phenoxy)phosphoryl)-L-alaninate]",< 100 nM
6,"CCCOC(=O)[C@H](C)NP(=O)(Cc1ccc2sc(C(=O)N[C@H]3C[C@H]4C[C@H]4C[C@H]4CC[C@@H](C(=O)N5CC(c6cnccc6F)C5)N4C3=O)cc2c1)Oc1ccccc1 (stereo partly drawn) [Compound 251, propyl(((2-(((3S,6S,7aR,8aS,9aR)-3-(3-(4-fluoropyridin-3-yl)azetidine-1-carbonyl)-5-oxodecahydro-1H-cyclopropa[d]pyrrolo[1,2-a]azocin-6-yl)carbamoyl)benzo[b]thiophen-5-yl)methyl)(phenoxy)phosphoryl)-L-alaninate]",< 100 nM

# Same assay, conditions: PBMC, compound 3 hrs, then 10 ng/mL IL-6 for 10 min; MSD pY705-STAT3; read-out: pSTAT3
row,Structure (SMILES),IC50
1,"CCCOC(=O)[C@H](C)NP(=O)(Oc1ccccc1)C(F)c1ccc2sc(C(=O)N[C@H]3C[C@@H]4C[C@@H]4C[C@H]4CC[C@@H](C(=O)N5CC(c6nncn6C)C5)N4C3=O)cc2c1 (stereo partly drawn) [Compound 309, propyl ((fluoro(2-(((3S,6S,7aS,8aR,9aR)-3-(3-(4-methyl-4H-1,2,4-triazol-3-yl)azetidine-1-carbonyl)-5-oxodecahydro-1H-cyclopropa[d]pyrrolo[1,2-a]azocin-6-yl)carbamoyl)benzo[b]thiophen-5-yl)methyl)(phenoxy)phosphoryl)-L-alaninate]",> 3000 nM
2,"CCCOC(=O)[C@H](C)NP(=O)(Oc1ccccc1)C(F)c1ccc2sc(C(=O)N[C@H]3C[C@H]4C[C@H]4C[C@H]4CC[C@@H](C(=O)N5CC(c6cnccc6C)C5)N4C3=O)cc2c1 (stereo partly drawn) [Compound 321, propyl ((fluoro(2-(((3S,6S,7aR,8aS,9aR)-3-(3-(4-methylpyridin-3-yl)azetidine-1-carbonyl)-5-oxodecahydro-1H-cyclopropa[d]pyrrolo[1,2-a]azocin-6-yl)carbamoyl)benzo[b]thiophen-5-yl)methyl)(phenoxy)phosphoryl)-L-alaninate]",< 100 nM
3,"CC(C)OC(=O)[C@H](C)N[P@@](=O)(Cc1ccc2sc(C(=O)N[C@H]3C[C@@H]4C[C@@H]4C[C@H]4CC[C@@H](C(=O)N5CC(C(=O)N6CCOCC6)C5)N4C3=O)cc2c1)Oc1ccccc1 (single isomer, unassigned) [Example 5]",1000 to 3000 nM
4,"CC(C)OC(=O)[C@H](C)NP(=O)(Cc1ccc2sc(C(=O)N[C@H]3C[C@@H]4C[C@@H]4C[C@H]4CC[C@@H](C(=O)N5CC(C(=O)N6CCOCC6)C5)N4C3=O)cc2c1)Oc1ccccc1Cl (stereo partly drawn) [Compound 191, isopropyl ((2-chlorophenoxy) ((2-(((3S,6S, 7aS,8aR,9aR)-3-(3-(morpholine-4-carbonyl)azetidine-1-carbonyl)-5-oxodecahydro-1H-cyclopropa[d]pyrrolo[1,2-a]azocin-6-yl)carbamoyl)benzo[b]thiophen-5-yl)methyl)phosphoryl)-L-alaninate]",100 to 1000 nM
5,"CCCOC(=O)[C@H](C)NP(=O)(Oc1ccccc1)C(F)c1ccc2sc(C(=O)N[C@H]3C[C@@H]4C[C@@H]4C[C@H]4CC[C@@H](C(=O)N5CC(c6cc(C)on6)C5)N4C3=O)cc2c1 (stereo partly drawn) [Compound 359, propyl ((fluoro(2-(((3S,6S,7aS,8aR,9aR)-3-(3-(5-methylisoxazol-3-yl)azetidine-1-carbonyl)-5-oxodecahydro-1H-cyclopropa[d]pyrrolo[1,2-a]azocin-6-yl)carbamoyl)benzo[b]thiophen-5-yl)methyl)(phenoxy)phosphoryl)-L-alaninate]",< 100 nM
6,"CC(C)(C)C(=O)SCCOP(=O)(OCCSC(=O)C(C)(C)C)C(F)c1ccc2sc(C(=O)N[C@H]3C[C@@H]4C[C@@H]4C[C@H]4CC[C@@H](C(=O)N5CC(c6cnccc6F)C5)N4C3=O)cc2c1 (stereo partly drawn) [Compound 306, S,S′-((((fluoro(2-(((3S,6S,7aS,8aR,9aR)-3-(3-(4-fluoropyridin-3-yl)azetidine-1-carbonyl)-5-oxodecahydro-1H-cyclopropa[d]pyrrolo[1,2-a]azocin-6-yl)carbamoyl)benzo[b]thiophen-5-yl)methyl)phosphoryl)bis(oxy))bis(ethane-2,1-diyl))bis(2,2-dimethylpropanethioate)]",< 100 nM
7,"CCCOC(=O)C(C)(C)NP(=O)(Oc1ccccc1)C(F)c1ccc2sc(C(=O)N[C@H]3C[C@@H]4C[C@@H]4C[C@H]4CC[C@@H](C(=O)N5CC(c6cnccc6C)C5)N4C3=O)cc2c1 (stereo partly drawn) [Compound 285, propyl 2-(((fluoro(2-(((3S,6S,7aS,8aR,9aR)-3-(3-(4-methylpyridin-3-yl)azetidine-1-carbonyl)-5-oxodecahydro-1H-cyclopropa[d]pyrrolo[1,2-a]azocin-6-yl)carbamoyl)benzo[b]thiophen-5-yl)methyl)(phenoxy)phosphoryl)amino)-2-methylpropanoate]",< 100 nM
8,"CCCOC(=O)[C@H](C)NP(=O)(Cc1ccc2sc(C(=O)N[C@H]3C[C@@H]4C[C@@H]4C[C@H]4CC[C@@H](C(=O)N5CC(c6cnccc6C)C5)N4C3=O)cc2c1)OCC(F)(F)F (stereo partly drawn) [Compound 311, propyl(((2-(((3S,6S,7aS,8aR,9aR)-3-(3-(4-methylpyridin-3-yl)azetidine-1-carbonyl)-5-oxodecahydro-1H-cyclopropa[d]pyrrolo[1,2-a]azocin-6-yl)carbamoyl)benzo[b]thiophen-5-yl)methyl)(2,2,2-trifluoroethoxy)phosphoryl)-L-alaninate]",< 100 nM
9,"CC(C)(CO)C(=O)OCOP(=O)(OCOC(=O)C(C)(C)CO)C(F)(F)c1ccc2sc(C(=O)N[C@H]3C[C@@H]4C[C@@H]4C[C@H]4CC[C@@H](C(=O)N5CC(C(=O)N6CCOCC6)C5)N4C3=O)cc2c1 [Compound 132, (((difluoro(2-(((3S,6S,7aS, 8aR,9aR)-3-(3-(morpholine-4-carbonyl)azetidine-1-carbonyl)-5-oxodecahydro-1H-cyclopropa[d]pyrrolo[1,2-a]azocin-6-yl)carbamoyl)benzo[b]thiophen-5-yl)methyl)phosphoryl)bis(oxy)) bis(methylene) bis(3-hydroxy-2,2-dimethyl-propanoate)]",> 3000 nM
10,"CCCOC(=O)[C@H](C)NP(=O)(Oc1ccccc1)C(F)c1ccc2sc(C(=O)N[C@H]3C[C@H]4C[C@H]4C[C@H]4CC[C@@H](C(=O)N5CC(c6nncn6C)C5)N4C3=O)cc2c1 (stereo partly drawn) [Compound 332, propyl ((fluoro(2-(((3S,6S,7aR,8aS,9aR)-3-(3-(4-methyl-4H-1,2,4-triazol-3-yl)azetidine-1-carbonyl)-5-oxodecahydro-1H-cyclopropa[d]pyrrolo[1,2-a]azocin-6-yl)carbamoyl)benzo[b]thiophen-5-yl)methyl)(phenoxy)phosphoryl)-L-alaninate]",> 3000 nM
11,"CC(C)(C)C(=O)SCCOP(=O)(OCCSC(=O)C(C)(C)C)C(F)(F)c1ccc2sc(C(=O)N[C@H]3C[C@@H]4C[C@@H]4C[C@H]4CC[C@@H](C(=O)N5CC(F)(c6ccc(C#N)cc6)C5)N4C3=O)cc2c1 [Compound 227, S,S′-(((((2-(((3S,6S,7aS, 8aR,9aR)-3-(3-(4-cyanophenyl)-3-fluoroazetidine-1-carbonyl)-5-oxodecahydro-1H-cyclopropa[d]pyrrolo[1,2-a]azocin-6-yl)carbamoyl)benzo[b]thiophen-5-yl)difluoromethyl)phosphoryl)bis(oxy))bis(ethane-2,1-diyl)) bis(2,2-dimethyl-propanethioate)]",< 100 nM
